Measured values taken from patent US20220304979A1, “METHODS OF REDUCING DISEASE FLARES” (Chinook Therapeutics, Inc., priority 2019, published 2022).

How the values were obtained:
[1] = system: kidney tissue of g-ddY mice; test: RNA-seq differential gene expression in kidney tissue of g-ddY mice; format: in vivo, mouse
Description: RNA isolation and sequencing libraries were generated using standard protocols. Sequencing was performed using an Illumina NextSeq500 using manufacturer's instructions with a read length of 75 bp and a read depth of 30 million. Raw data was assembled to FASTQ files. Following QC analysis, high quality sequencing reads (e.g., reads with a Phred quality score >36) were aligned to the mouse reference genome (GRCm38-mm10) using the default parameters of the align algorithm and transcript count tables of each library was generated using the default parameters of the featureCounts algorithm of the RSubread package (Liao […], Shi W, 2019). High quality sequencing reads mapped to 27,129 genes. Following additional QC of low count filtering (i.e. transcripts <10 counts across all samples), 16,207 genes were identified and used for further analysis. The remaining sequencing read counts of the included 16,207 genes were normalized to library size, log-transformed, and were quantified as counts per million (CPM). Select RNA-seq counts were validated using qPCR. Sequencing read counts (CPM) were used for identification of differential gene expression between specified populations using the quasi-likelihood methodology of the edgeR package. […] MA plots were generated using edgeR. Heatmaps and other plots were generated using the gplots and ggplot2 package.

[2] = patients with diabetic kidney disease (DKD); cited from earlier work
[3] = atrasentan 10 mg/kg/day vs 0 mg/kg/day (control), g-ddY mice
[4] = atrasentan 20 mg/kg/day vs 0 mg/kg/day (control), g-ddY mice
[5] = atrasentan 30 mg/kg/day vs 0 mg/kg/day (control), g-ddY mice

## CCCCN(CCCC)C(=O)CN1C[C@H](c2ccc3c(c2)OCO3)[C@@H](C(=O)O)[C@@H]1c1ccc(OC)cc1 [atrasentan, (2R,3R,4S)-4-(1,3-benzodioxol-5-yl)-1-[2-(dibutylamino)-2-oxoethyl]-2-(4-methoxyphenyl)pyrrolidine-3-carboxylic acid]
[1]; 10 mg/kg/day
  ET1 gene signature genes downregulated versus untreated control: Grk5, Mllt3, Klf2, Pparg, Hgf, Edn1, Fos, Ptgs2, and IL-1b
  ET1 gene signature genes upregulated versus untreated control: Ccnd1, Ppara, Agt, Map2k2 and Hoxa9
[1]; 20 mg/kg/day
  ET1 gene signature genes downregulated versus untreated control: Nfatc1, Grk5, Klf2, Cav1, Pparg, Itga5, Myc, Ednra, Sell, Hgf, Mmp2, Edn1, Syk, Fos, and IL-1b
  ET1 gene signature genes upregulated versus untreated control: Ccdn1, Cat, Ppara, Map2k2, Hoxa9, Agt, and Egfr
[1]; 30 mg/kg/day
  ET1 gene signature genes downregulated versus untreated control: Ednrb, Myc, Mllt3, Hdac7, Ednra, Itga5, Grk5, Pparg, Klf2, Hgf, Mmp2, Sell, Sphk1, Fos, Syk, Edn1, and IL-1b
  ET1 gene signature genes upregulated versus untreated control: Ccnd1, Agt, Cat, Map2k2, Hoxa9, and Ppara
  gene expression of Ednra and Ednrb: downregulated
[1]; all three doses (10, 20, 30 mg/kg/day)
  gene expression of ET1 (End1): downregulated
[1]; [3]
  logFC Ahnak gene expression: −0.5756
  logFC Akap12 gene expression: −0.2687
  logFC Akt3 gene expression: −0.3863
  logFC Aldob gene expression: 0.4194
  logFC Ankrd12 gene expression: −0.2824
  logFC C7 gene expression: −0.7767
  logFC Caldl gene expression: −0.3719
  logFC Cblb gene expression: −0.082
  logFC Ebfl gene expression: −0.3301
  logFC Epb4112 gene expression: −0.4375
  logFC Etsl gene expression: −0.2198
  logFC Fchsd2 gene expression: −0.2564
  logFC Frmd4a gene expression: −0.2838
  logFC Gata3 gene expression: −0.4822
  logFC Gpx3 gene expression: 0.6802
  logFC Igfbp7 gene expression: 0.2052
  logFC Lama2 gene expression: −0.2955
  logFC Maml2 gene expression: −0.2318
  logFC Mef2c gene expression: −0.6217
  logFC Meisl gene expression: −0.2507
  logFC Myh9 gene expression: −0.2094
  logFC Myole gene expression: −0.2349
  logFC Nbea gene expression: −0.2819
  logFC Nr4a1 gene expression: −1.525
  logFC Piezo2 gene expression: −0.4078
  logFC Postn gene expression: −1.385
  logFC Pparg gene expression: −0.6129
  logFC Ppp1r12a gene expression: −0.1995
  logFC Prkgl gene expression: −0.2187
  logFC Psd3 gene expression: −0.3544
  logFC Ptprm gene expression: −0.2614
  logFC Rapgef5 gene expression: −0.2732
  logFC Raphl gene expression: −0.2965
  logFC Rbms3 gene expression: −0.5749
  logFC Robol gene expression: −0.4803
  logFC Stard13 gene expression: −0.7224
  logFC Tacc1 gene expression: −0.2449
  logFC Tcf4 gene expression: −0.2176
  logFC Tjpl gene expression: −0.2489
  logFC Tns3 gene expression: −0.2638
  logFC Unc5c gene expression: 0.5618
  logFC Utrn gene expression: −0.49
  logFC Zeb2 gene expression: −0.5638
[1]; [4]
  logFC Ahnak gene expression: −0.7128
  logFC Akap12 gene expression: −0.5404
  logFC Akt3 gene expression: −0.4673
  logFC Aldob gene expression: 0.4923
  logFC Ankrd12 gene expression: −0.2463
  logFC C7 gene expression: −1.277
  logFC Caldl gene expression: −0.5361
  logFC Cblb gene expression: −0.2068
  logFC Ebfl gene expression: −0.3512
  logFC Epb4112 gene expression: −0.6149
  logFC Etsl gene expression: −0.3065
  logFC Fchsd2 gene expression: −0.1882
  logFC Frmd4a gene expression: −0.3955
  logFC Gata3 gene expression: −0.4924
  logFC Gpx3 gene expression: 0.71
  logFC Igfbp7 gene expression: 0.1088
  logFC Lama2 gene expression: −0.4437
  logFC Maml2 gene expression: −0.2311
  logFC Mef2c gene expression: −0.6302
  logFC Meisl gene expression: −0.3593
  logFC Myh9 gene expression: −0.4543
  logFC Myole gene expression: −0.292
  logFC Nbea gene expression: −0.1933
  logFC Piezo2 gene expression: −0.6148
  logFC Postn gene expression: −2.293
  logFC Pparg gene expression: −0.5616
  logFC Ppp1r12a gene expression: −0.2135
  logFC Prkgl gene expression: −0.328
  logFC Psd3 gene expression: −0.5227
  logFC Ptprm gene expression: −0.2678
  logFC Rapgef5 gene expression: -0.3804
  logFC Raphl gene expression: −0.3852
  logFC Rbms3 gene expression: −0.7192
  logFC Robol gene expression: −0.7261
  logFC Stard13 gene expression: −0.6367
  logFC Tacc1 gene expression: −0.3693
  logFC Tcf4 gene expression: −0.224
  logFC Tjpl gene expression: −0.3054
  logFC Tns3 gene expression: −0.3043
  logFC Unc5c gene expression: 0.3685
  logFC Utrn gene expression: −0.5143
  logFC Zeb2 gene expression: −0.6492
[1]; [5]
  logFC Ahnak gene expression: −1.013
  logFC Akap12 gene expression: −0.8211
  logFC Akt3 gene expression: −0.4843
  logFC Aldob gene expression: 0.748
  logFC Ankrd12 gene expression: −0.4726
  logFC C7 gene expression: −1.079
  logFC Caldl gene expression: −0.506
  logFC Cblb gene expression: −0.4288
  logFC Ebfl gene expression: −0.4506
  logFC Epb4112 gene expression: −0.7021
  logFC Etsl gene expression: −0.3379
  logFC Fchsd2 gene expression: −0.3772
  logFC Frmd4a gene expression: −0.5742
  logFC Gata3 gene expression: −0.5216
  logFC Gpx3 gene expression: 1.122
  logFC Igfbp7 gene expression: 0.4259
  logFC Lama2 gene expression: −0.4895
  logFC Maml2 gene expression: −0.4441
  logFC Mef2c gene expression: −0.6869
  logFC Meisl gene expression: −0.4934
  logFC Myh9 gene expression: −0.6171
  logFC Myole gene expression: −0.4177
  logFC Nbea gene expression: −0.432
  logFC Piezo2 gene expression: −0.8237
  logFC Postn gene expression: −1.247
  logFC Pparg gene expression: −0.6781
  logFC Ppp1r12a gene expression: −0.3826
  logFC Prkgl gene expression: −0.6356
  logFC Psd3 gene expression: −0.5843
  logFC Ptprm gene expression: −0.5453
  logFC Rapgef5 gene expression: −0.4225
  logFC Raphl gene expression: −0.5358
  logFC Rbms3 gene expression: −0.8895
  logFC Robol gene expression: −0.6009
  logFC Stard13 gene expression: −0.8466
  logFC Tacc1 gene expression: −0.4924
  logFC Tcf4 gene expression: −0.3055
  logFC Tjpl gene expression: −0.3989
  logFC Tns3 gene expression: −0.4522
  logFC Unc5c gene expression: 0.9517
  logFC Utrn gene expression: −0.7697
  logFC Zeb2 gene expression: −0.6778
[2]
  risk of renal events (doubling of serum creatinine or end-stage kidney disease): significantly reducing the risk of renal events
